Reference: US6017933A, “Mannich bases of conjugated styryl ketones” (University of Saskatchewan Technologies Inc., priority 1999, dated 2000)

Legend:
[1] = test system: P388 cells; assay: Cytotoxicity, murine P388 leukemic cells (P388 D1); settings: for IC50: read-out: P388 cells IC50; for cytotoxicity compared with compound 9d: Table 3 screens
[2] = test system: Molt 4/C8 cells; assay: Cytotoxicity, Molt 4/C8 human T-lymphocytes; settings: for TIL1210 (Molt 4/C8 cells): IC50 T-lymphocytes (Molt 4/C8)/IC50 L1210; for TIP388 (Molt 4/C8 cells): IC50 T-lymphocytes (Molt 4/C8)/IC50 P388; for IC50: read-out: Molt 4/C8 cells IC50; for TIht (Molt 4/C8 cells): IC50 T-lymphocytes (Molt 4/C8)/IC50 human tumors
[3] = test system: L1210 cells; assay: Cytotoxicity, murine L1210 leukemic cells; assay type: cell-based; settings: Mus musculus, mean
[4] = test system: CEM cells; assay: Cytotoxicity, CEM human T-lymphocytes; settings: for IC50: Homo sapiens, CCRF-CEM, read-out: CEM cells IC50; for TIL1210 (CEM cells): IC50 T-lymphocytes (CEM)/IC50 L1210; for TIP388 (CEM cells): IC50 T-lymphocytes (CEM)/IC50 P388; for TIht (CEM cells): IC50 T-lymphocytes (CEM)/IC50 human tumors
[5] = test system: human tumors; assay: Cytotoxicity, human tumor cell line panel (approximately 55 lines); settings: for IC50: read-out: human tumors IC50, mean graph midpoint, approximately 55 cell lines, hydrobromide salts used for 4a, 11a-e; for selective/preferential cytotoxicity towards colon cancer cells / Selective toxicity towards leukemia: human tumor screen

| SMILES | IC50 [1] | TIL1210 (Molt 4/C8 cells) [2] | TIP388 (Molt 4/C8 cells) [2] | IC50 [2] | IC50 [3] | IC50 [4] | TIL1210 (CEM cells) [4] | TIP388 (CEM cells) [4] | TIht (Molt 4/C8 cells) [2] | TIht (CEM cells) [4] | IC50 [5] | cytotoxicity compared with compound 9d [1] | TI (murine leukemia cells vs T-lymphocytes; printed TIht) compared with compound d [2] | TIht compared with compound 9d [2] | selective/preferential cytotoxicity towards colon cancer cells [5] | Selective toxicity towards leukemia [5] | potency relative to melphalan, P388 [1] | activity relative to melphalan, human tumors [5] |
| --- | --- | --- | --- | --- | --- | --- | --- | --- | --- | --- | --- | --- | --- | --- | --- | --- | --- | --- |
| CC[N+]1(C)CCC(O)(/C=C/c2ccc(C)cc2)C(C(=O)/C=C/c2ccc(C)cc2)C1 (centres unmarked) [Compound 10d] | 0.62 µM | 0.45 | 9.98 | 6.19 ± 0.7 µM | 13.8 µM | 3.92 µM | 0.28 | 6.32 | – | – | – | – | – | – | – | – | – | – |
| CCN1CCC(O)(c2ccc(Cl)cc2)C(C(=O)c2ccc(Cl)cc2)C1 (centres unmarked) [Compound 11b] | 5.14 µM | 3.68 | 11.21 | 57.6 µM | 15.7 µM | 102 µM | 6.52 | 19.89 | 0.69 | 1.23 | 83.2 µM | – | – | – | – | – | – | – |
| CCN(CC)CCC(=O)c1ccc(C)cc1 [Compound 4d] | 2.2 µM | 2.96 | 28.97 | 63.7 µM | 21.5 µM | 64.1 µM | 2.98 | 29.15 | 2.42 | 2.44 | 26.3 µM | – | – | – | – | – | – | – |
| O=C(CCN1CCN(CCC(=O)c2ccccc2)CC1)c1ccccc1 [Compound 8b] | 2.84 µM | 2.69 | 9.20 | 26.1 µM | 9.71 µM | 16 µM | 1.65 | 5.64 | – | – | – | – | – | – | – | – | – | – |
| CCN1CCC(O)(c2ccc(Cl)c(Cl)c2)C(C(=O)c2ccc(Cl)c(Cl)c2)C1 (centres unmarked) [Compound 11c] | 3.11 µM | – | – | – | – | – | – | – | – | – | 16.6 µM | – | – | – | – | – | – | – |
| CCN(CC)CCC(=O)/C=C/c1ccc(OC)cc1 [Compound 1e] | 0.67 µM | 1.17 | 77.69 | 52.1 µM | 44.3 µM | 48.6 µM | 1.10 | 72.55 | – | – | – | – | – | – | – | – | – | – |
| CC[N+]1(C)CCC(O)(c2ccc(Cl)c(Cl)c2)C(C(=O)c2ccc(Cl)c(Cl)c2)C1 (centres unmarked) [Compound 12c] | 2.3 µM | 0.84 | 12.23 | 28.1 µM | 33.6 µM | 25.8 µM | 0.77 | 11.20 | 2.95 | 2.70 | 9.54 µM | – | – | – | – | – | – | – |
| CCN1CCC(O)(/C=C/c2ccc(C)c(C)c2)C(C(=O)/C=C/c2ccc(C)c(C)c2)C1 (centres unmarked) [Compound 13b] | 2.59 µM | 0.67 | 5.41 | 14 ± 8.6 µM | 20.9 µM | 30.8 µM | 1.47 | 11.89 | – | – | – | comparable cytotoxicity to compound 9d | lower | greater than compound 9d | neither 13a,b displayed selective toxicity for colon cancers | – | – | – |
| CCN(CC)CCC(=O)/C=C/c1ccc(C)cc1 [Compound 1d] | 1.1 µM | 1.05 | 50.65 | 55.7 µM | 52.9 µM | 48.6 µM | 0.92 | 44.19 | – | – | – | – | – | – | – | – | – | – |
| CCN(CC)CCC(=O)c1ccc(Cl)cc1 [Compound 4b] | 3.2 µM | 0.62 | 7.13 | 22.8 µM | 36.9 µM | 40 µM | 1.08 | 12.50 | – | – | – | – | – | – | – | – | – | – |
| CCN(CC)CCC(=O)/C=C/c1ccccc1 [Compound 1a] | 1.7 µM | 1.66 | 25.04 | 42.6 µM | 25.7 µM | 33.9 µM | 1.32 | 19.92 | 4.36 | 3.47 | 9.77 µM | – | – | – | – | this property was also noted | – | – |
| CCN(CC)CCC(=O)/C=C/c1ccc(Cl)c(Cl)c1 [Compound 1c] | 0.39 µM | 0.74 | 116.5 | 45.4 µM | 61.2 µM | 55.8 µM | 0.91 | 143.2 | 11.96 | 14.70 | 3.8 µM | – | – | – | – | – | more than half the potency of melphalan | – |
| CC[N+]1(C)CCC(O)(c2ccc(OC)cc2)C(C(=O)c2ccc(OC)cc2)C1 (centres unmarked) [Compound 12e] | 0.98 µM | – | – | – | – | – | – | – | – | – | 10.2 µM | – | – | – | – | Selective toxicity towards leukemia was observed | – | – |
| CCN1CCC(O)(c2ccccc2)C(C(=O)c2ccccc2)C1 (centres unmarked) [Compound 11a] | 1.07 µM | 1.80 | 33.78 | 36.1 µM | 20.1 µM | 45.7 µM | 2.28 | 42.70 | 1.20 | 1.51 | 30.2 µM | – | – | – | – | – | – | – |
| CCN1CCC(O)(/C=C/c2cccc(C)c2)C(C(=O)/C=C/c2cccc(C)c2)C1 (centres unmarked) [Compound 13a] | 1.89 µM | 1.14 | 7.57 | 14.3 ± 9.1 µM | 12.6 µM | 9.23 µM | 0.73 | 4.89 | 5.81 | 3.75 | 2.46 µM | comparable cytotoxicity to compound 9d | lower | greater than compound 9d | neither 13a,b displayed selective toxicity for colon cancers | – | – | – |
| CCN1CCC(O)(/C=C/c2ccc(OC)cc2)C(C(=O)/C=C/c2ccc(OC)cc2)C1 (centres unmarked) [Compound 9e] | 5 µM | 0.81 | 4.14 | 20.7 µM | 25.6 µM | 11.7 µM | 0.46 | 2.35 | 2.49 | 1.41 | 8.31 µM | – | – | – | – | this property was also noted | – | – |
| CCN(CC)CCC(=O)c1ccccc1 [Compound 4a] | 2.6 µM | 0.86 | 6.68 | 17.4 µM | 20.3 µM | 38.5 µM | 1.90 | 14.81 | 0.69 | 1.53 | 25.1 µM | – | – | – | – | – | – | – |
| CCN1CCC(O)(c2ccc(O)cc2)C(C(=O)c2ccc(O)cc2)C1 (centres unmarked) [Compound 11f] | 1.4 µM | 4.32 | 30.09 | 42.1 µM | 9.75 µM | 42.6 µM | 4.37 | 30.46 | 2.02 | 2.04 | 20.9 µM | – | – | – | – | – | – | – |
| CC[N+]1(C)CCC(O)(c2ccc(Cl)cc2)C(C(=O)c2ccc(Cl)cc2)C1 (centres unmarked) [Compound 12b] | 1.5 µM | – | – | – | – | – | – | – | – | – | 12.9 µM | – | – | – | – | Selective toxicity towards leukemia was observed | – | – |
| CCN(CC)CCC(=O)c1ccc(Cl)c(Cl)c1 [Compound 4c] | – | – | – | – | – | – | – | – | – | – | – | – | – | – | – | – | more than half the potency of melphalan | – |
| CCN1CCC(O)(c2ccc(OC)cc2)C(C(=O)c2ccc(OC)cc2)C1 (centres unmarked) [Compound 11e] | 4.17 µM | 2.94 | 9.51 | 39.7 µM | 13.5 µM | 39.9 µM | 2.96 | 9.57 | 2.04 | 2.05 | 19.5 µM | – | – | – | – | – | – | – |
| CCN1CCC(O)(/C=C/c2ccc(Cl)c(Cl)c2)C(C(=O)/C=C/c2ccc(Cl)c(Cl)c2)C1 (centres unmarked) [Compound 9c] | 0.4 µM | – | – | – | – | – | – | – | – | – | 0.38 µM | – | – | – | – | – | more than half the potency of melphalan | – |
| CCN(CC)CCC(=O)/C=C/c1ccc(Cl)cc1 [Compound 1b] | 0.3 µM | 0.98 | 134.6 | 40.4 µM | 41 µM | 53.3 µM | 1.30 | 177.6 | – | – | – | – | – | – | – | – | more than half the potency of melphalan | – |
| CC[N+]1(C)CCC(O)(c2ccccc2)C(C(=O)c2ccccc2)C1 (centres unmarked) [Compound 12a] | 1.3 µM | – | – | – | – | – | – | – | – | – | 12.9 µM | – | – | – | – | Selective toxicity towards leukemia was observed | – | – |
| CCN1CCC(O)(c2ccc(C)cc2)C(C(=O)c2ccc(C)cc2)C1 (centres unmarked) [Compound 11d] | 8.6 µM | 0.89 | 3.97 | 34.2 µM | 38.2 µM | 38.7 µM | 1.01 | 4.50 | 1.36 | 1.54 | 25.1 µM | – | – | – | – | – | – | – |
| CC[N+]1(C)CCC(O)(c2ccc(C)cc2)C(C(=O)c2ccc(C)cc2)C1 (centres unmarked) [Compound 12d] | 2.1 µM | – | – | – | – | – | – | – | – | – | 50.1 µM | – | – | – | – | – | – | five times more potent than melphalan |
